From patent publication US20090170880A1, “Methods and Means for the Treatment of Cancer” (priority 2007, published 2009)

Tests used:
[1] = test system: intracranial Mel57-luc tumor xenografts; assay: Efficacy against intracranial Mel57-luc tumor xenografts; assay type: in vivo, nude mice; conditions: wild-type nude mice, elacridar oral 100 mg/kg/day×5 20-30 min before temozolomide oral 100 mg/kg/day×5
Description: Intracranial Mel57-luc (luciferase transfected subline) tumor xenografts in wild-type nude mice (WT) and mdr1ab knockout nude mice (MDR) were established according to the protocol below (see Kemper et al, Eur J Cancer 42:3294-3303, 2006).
The Mel57 cell line (University Medical Centre, Nijmegen, The Netherlands) is a human melanoma cell line and was cultured in MEM (Life Technologies Inc., Breda, The Netherlands) supplemented with 10% foetal calf serum, non-essential amino acids, streptomycin, penicillin and sodium pyruvate (all Life Technologies), and incubated at 37° C. and 5% CO2 in humidified air. The cell line was further transfected by standard protocols with lipofectamine using a pBS vector containing a β-actin driven luciferase gene coupled via an internal ribosome […] to GFP. After expansion, GFP bright cells were sorted to single cells by FACS, expanded and sublines tested for luciferase expression by an in vitro bioluminescence assay (Promega, Benelux BV, Leiden, The Netherlands). Three to five sublines showing the highest luminescence activity were tested in vivo for tumour take and intracranial growth behaviour. To retrieve tumour cells for injection, the cell culture was trypsinised (trypsin 0.05%; EDTA 0.02%, Life Technologies), washed two times with Hanks Balanced Saline Solution (HBSS, Life Technologies Inc.), counted and resuspended in an appropriate volume of HBSS. The single cell suspension was kept on ice until injection. […]
Mel57-luc cells (100,000 cells/2 μl) were injected stereotactically in the brain as described in detail in Kemper et al^14. […] The amount of bioluminescence in each animal was calculated relative to the first measurement when therapy was initiated (arbitrarily set at 100%) and was log converted prior to data analysis. Tumor volume was measured by bioluminescence activity (see Kemper et al, Eur J Cancer 42:3294-3303, 2006).

murine Bcrp1 = target: T1, murine Bcrp1 (Mus musculus, UniProt Q7TMS5); assay: Transwell transport of temozolomide, MDCKII-Bcrp1 cells, without or with inhibitors; assay type: in vitro ADME; conditions: MDCKII-Bcrp1 cells
T1 construct: expressed in transfected cells; host or cells: MDCKII (canine kidney) cells transduced with murine Bcrp1
T1 sequence (Q7TMS5 1-657): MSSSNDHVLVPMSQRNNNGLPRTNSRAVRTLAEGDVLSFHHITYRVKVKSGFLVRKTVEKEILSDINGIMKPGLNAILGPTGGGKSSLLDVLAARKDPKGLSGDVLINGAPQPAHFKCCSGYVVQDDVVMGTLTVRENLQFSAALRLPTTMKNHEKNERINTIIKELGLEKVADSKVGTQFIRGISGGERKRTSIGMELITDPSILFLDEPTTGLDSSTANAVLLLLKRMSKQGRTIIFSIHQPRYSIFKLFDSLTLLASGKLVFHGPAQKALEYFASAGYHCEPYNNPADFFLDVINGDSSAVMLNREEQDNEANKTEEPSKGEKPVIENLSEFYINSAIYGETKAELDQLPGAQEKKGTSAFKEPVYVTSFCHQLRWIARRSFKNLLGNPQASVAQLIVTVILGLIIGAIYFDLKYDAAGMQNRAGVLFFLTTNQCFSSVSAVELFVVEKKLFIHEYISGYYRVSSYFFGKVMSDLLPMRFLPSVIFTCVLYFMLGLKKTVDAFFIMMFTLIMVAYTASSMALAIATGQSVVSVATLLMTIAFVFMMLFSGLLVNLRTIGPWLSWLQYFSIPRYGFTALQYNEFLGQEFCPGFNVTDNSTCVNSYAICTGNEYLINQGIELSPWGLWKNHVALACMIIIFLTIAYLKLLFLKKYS
Description: The parental LLC pig-kidney (PK1) cell line and sublines transduced with murine Mdr1a or human MDR1 (12) and the parental Madine Darby Canine Kidney (MDCK) and murine Bcrp1 or human BCRP transduced sublines (13) were seeded on Transwell microporous polycarbonate membrane filters (3.0 μm pore size, 24 mm diameter; Costar Corning, N.Y., USA) at a density of 1×10^6 cells per well in 2 ml of MEM medium (Invitrogen Corporation, Carlsbad, Calif.) containing 10% v/v fetal calf serum. Cells were incubated at 37° C. in 5% CO2 for three days with one medium replacement after the first day. Two hours before the start of the experiment the medium in both compartments was replaced with 2 ml of OptiMEM medium (InVitrogen Corp.). At the start of the experiment the medium in the apical or basolateral compartment was replaced with 2 ml of freshly prepared OptiMEM medium containing 40 μg/ml of temozolomide. […] Zosuquidar (LY335979, 5 μM) was always added to the medium when doing experiments with MDCK cell lines to inhibit endogenous canine P-gp. Samples of 50 μl were collected every 30 min, for up to 2 h after start of the experiment. Because temozolomide is instable in medium at 37° C., we replaced one ml of the donor compartment by a freshly prepared aliquot every 30 min. [^3H]-inulin (approximately 7 kBq per well) was added to the same compartment as temozolomide to check the integrity of the cell layer. Wells showing a leakage of more than 1.5% per hour were excluded.
First, we took samples every 30 min for up to 2 h instead of every hour for up to 4 h. Secondly, to maintain adequate temozolomide levels at the donor side throughout the experiment we replaced 1 ml of the 2 ml of medium at the donor side of the transwell at each sampling time by 1 ml of a freshly prepared temozolomide solution in medium.

P-gp [2] = assay: Transwell control experiments with radioactively labeled P-gp and BCRP substrates; assay type: in vitro ADME; conditions: inhibitor 20 μM, radiolabeled substrates, results not shown
Description: Similar experiments were conducted in the parental canine MDCK cells and its transduced murine Bcrp1 or human BCRP sublines. […] Together with these experiments we ran control experiments using well-established P-gp and BCRP substrates that were available to us as radioactively labeled compounds (^14C-trabectedin and ^14C-Indisulan, or ^14C-topotecan). […] Moreover, the integrity of all monolayers was checked using ^3H-inuline as marker compound. Wells showing more than 1.5% translocation of inuline per 30 min were considered to be leaky and excluded from the analysis.

P-gp and BCRP = assay: Temozolomide brain and plasma levels at 2 h with or without oral inhibitor; assay type: in vivo; conditions: wild-type mice, inhibitor 100 mg/kg oral, 2 h after temozolomide
Description: The mice were anesthetized with metoxyflurane and blood samples were obtained by cardiac puncture and collected on ice in tubes containing potassium EDTA as anticoagulant. […] Immediately after cardiac puncture the mice were killed by cervical dislocation and the brains were dissected and placed on ice. Within 60 min they were weighed and homogenized in 3 ml of ice-cold 1% of BSA in 0.05 M phosphate buffer adjusted to pH 2 and stored at −20° C. until further analysis. […] The brain-to-plasma ratio was calculated for each individual animal. The two-sided unpaired Student's t-test was used for statistical analysis of AUC values. Bonferroni's test for multiple comparisons was calculated using SPSS (v12.0.1; […]

[3] = in vivo; cited from earlier work
P-gp [4] = target: T2, P-gp (Mus musculus, UniProt P21447); conditions: Mdr1ab knockout mice; cited from earlier work
T2 construct: host or cells: mice (Mdr1ab knockout versus wild type)
T2 sequence (P21447 whole entry): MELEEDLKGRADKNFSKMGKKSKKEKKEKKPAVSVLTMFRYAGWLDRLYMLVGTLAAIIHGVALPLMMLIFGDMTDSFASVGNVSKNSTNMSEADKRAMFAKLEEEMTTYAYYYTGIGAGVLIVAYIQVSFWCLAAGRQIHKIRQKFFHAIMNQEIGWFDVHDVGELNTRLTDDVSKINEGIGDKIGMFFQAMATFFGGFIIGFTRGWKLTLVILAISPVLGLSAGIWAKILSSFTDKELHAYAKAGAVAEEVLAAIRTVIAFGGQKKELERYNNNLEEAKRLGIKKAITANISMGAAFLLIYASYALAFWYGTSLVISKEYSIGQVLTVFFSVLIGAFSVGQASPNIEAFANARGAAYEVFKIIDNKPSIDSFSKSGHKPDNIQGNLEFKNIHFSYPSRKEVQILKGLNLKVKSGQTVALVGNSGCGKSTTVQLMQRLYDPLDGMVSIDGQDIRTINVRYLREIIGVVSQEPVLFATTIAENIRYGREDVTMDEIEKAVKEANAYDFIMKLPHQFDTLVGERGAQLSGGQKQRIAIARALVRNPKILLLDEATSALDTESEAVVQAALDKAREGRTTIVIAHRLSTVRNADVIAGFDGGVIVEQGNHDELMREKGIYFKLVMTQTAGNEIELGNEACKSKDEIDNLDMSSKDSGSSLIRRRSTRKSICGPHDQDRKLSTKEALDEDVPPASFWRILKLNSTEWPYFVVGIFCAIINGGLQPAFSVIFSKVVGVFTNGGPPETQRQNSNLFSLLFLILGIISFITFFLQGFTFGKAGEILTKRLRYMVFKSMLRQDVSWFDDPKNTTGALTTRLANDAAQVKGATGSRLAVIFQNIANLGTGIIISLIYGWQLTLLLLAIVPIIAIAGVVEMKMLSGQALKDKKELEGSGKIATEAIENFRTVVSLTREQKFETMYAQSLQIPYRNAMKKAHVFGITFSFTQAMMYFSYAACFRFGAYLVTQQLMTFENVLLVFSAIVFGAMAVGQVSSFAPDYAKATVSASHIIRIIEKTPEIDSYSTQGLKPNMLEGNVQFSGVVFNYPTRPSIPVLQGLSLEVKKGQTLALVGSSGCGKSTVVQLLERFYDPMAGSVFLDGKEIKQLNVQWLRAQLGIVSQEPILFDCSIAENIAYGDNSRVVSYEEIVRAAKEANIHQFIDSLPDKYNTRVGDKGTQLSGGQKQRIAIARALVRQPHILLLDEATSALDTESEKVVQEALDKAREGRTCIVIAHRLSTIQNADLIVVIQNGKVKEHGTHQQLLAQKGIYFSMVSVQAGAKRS

SMILES: COc1cc2c(cc1OC)CN(CCc1ccc(NC(=O)c3cccc4c(=O)c5cccc(OC)c5[nH]c34)cc1)CC2 [elacridar]
- efficacy of temozolomide with elacridar versus temozolomide alone [1]: more effective than temozolomide alone
- effect on Bcrp1 mediated transport of temozolomide (murine Bcrp1; inhibitor 5 μM): (almost) completely abrogated

SMILES: C#Cc1cccc(Nc2ncnc3cc(OCCOC)c(OCCOC)cc23)c1 [erlotinib]
- effect on Bcrp1 mediated transport of temozolomide (murine Bcrp1; inhibitor 10 μM): (almost) completely abrogated

SMILES: COc1cc2ncnc(Nc3ccc(F)c(Cl)c3)c2cc1OCCCN1CCOCC1 [gefitinib]
- inhibition of P-gp mediated transport (P-gp [2]): sufficient
- effect on Bcrp1 mediated transport of temozolomide (murine Bcrp1; inhibitor 10 μM): (almost) completely abrogated
- effect on temozolomide plasma level (P-gp and BCRP): significantly increased

SMILES: Cc1ccc(NC(=O)c2ccc(CN3CCN(C)CC3)cc2)cc1Nc1nccc(-c2cccnc2)n1 [imatinib]
- oral bioavailability [3]: > 90%

SMILES: CO[C@@H]1[C@@H](OC(N)=O)[C@@H](O)[C@H](Oc2ccc3c(O)c(NC(=O)c4ccc(O)c(CC=C(C)C)c4)c(=O)oc3c2C)OC1(C)C [novobiocin]
- effect on Bcrp1 mediated transport of temozolomide (murine Bcrp1; inhibitor 50 μM): not sufficient

SMILES: CC(=O)O[C@H]1C(=O)[C@@]2(C)[C@H]([C@H](OC(=O)c3ccccc3)[C@]3(O)C[C@H](OC(=O)[C@H](O)[C@@H](NC(=O)c4ccccc4)c4ccccc4)C(C)=C1C3(C)C)[C@]1(OC(C)=O)CO[C@@H]1C[C@@H]2O [paclitaxel]
- brain-to-plasma ratio relative to wild-type controls (P-gp [4]): more than 5 fold
